Experimental data taken from PubChem BioAssay AID248 (DTP/NCI, 2004).
Values joined by “and” are separate entries in the source; they are usually repeats but may differ in a detail not shown here. Identical values can stand only once. Toxic doses and inconclusive results are not listed. Rule as the data show it: active = T/C of 150% or more; inactive = T/C below 125%.

Test system: L1210 leukemia ip in BDF1 mice, survival T/C
Experiment: NCI In Vivo Anticancer Drug Screen. Data for tumor model L1210 Leukemia (intraperitoneal) in B6D2F1 (BDF1) mice
Settings: endpoint: mean survival time, higher = longer survival
Method in brief: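 Value reflects the ratio of survival in compound-treated mice to survival in vehicle-treated controls, with both groups carrying the same transplanted tumor.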

[1] = dose: 200.0 mg/kg/injection, schedule: Q04DX002 (ip), vehicle: saline with Tween-80
[2] = dose: 100.0 mg/kg/injection, schedule: Q01DX009 (ip), vehicle: Klucel (hydroxypropylcellulose) (HPC)
[3] = dose: 200.0 mg/kg/injection, schedule: Q01DX009 (ip), vehicle: Klucel (hydroxypropylcellulose) (HPC)
[4] = dose: 12.5 mg/kg/injection, schedule: Q01DX009 (ip), vehicle: saline
[5] = dose: 12.5 mg/kg/injection, schedule: Q04DX003 (ip), vehicle: saline
[6] = dose: 25.0 mg/kg/injection, schedule: Q01DX009 (ip), vehicle: saline
[7] = dose: 25.0 mg/kg/injection, schedule: Q04DX003 (ip), vehicle: saline
[8] = dose: 50.0 mg/kg/injection, schedule: Q01DX001 (ip), vehicle: saline
[9] = dose: 400.0 mg/kg/injection, schedule: Q01DX009 (ip), vehicle: Klucel (hydroxypropylcellulose) (HPC)
[10] = dose: 100.0 mg/kg/injection, schedule: Q04DX003 (ip), vehicle: saline
[11] = dose: 200.0 mg/kg/injection, schedule: Q04DX003 (ip), vehicle: saline
[12] = dose: 400.0 mg/kg/injection, schedule: Q04DX003 (ip), vehicle: saline
[13] = dose: 100.0 mg/kg/injection, schedule: Q01DX009 (ip), vehicle: saline with Tween-80
[14] = dose: 100.0 mg/kg/injection, schedule: Q04DX003 (ip), vehicle: saline with Tween-80
[15] = dose: 200.0 mg/kg/injection, schedule: Q04DX003 (ip), vehicle: saline with Tween-80
[16] = dose: 400.0 mg/kg/injection, schedule: Q04DX003 (ip), vehicle: saline with Tween-80

Measured: T/C

O=C1CCCCC1C(=O)C(F)(F)C(F)(F)C(F)(F)F (configuration not stated)
inactive: dose: 90.0 mg/kg/injection, schedule: Q01DX Z (ip), vehicle: methylcellulose (MC) 97 % of control | dose: 150.0 mg/kg/injection, schedule: Q01DX Z (ip), vehicle: methylcellulose (MC) 102 % of control | dose: 222.0 mg/kg/injection, schedule: Q01DX Z (ip), vehicle: methylcellulose (MC) 97 % of control | dose: 333.0 mg/kg/injection, schedule: Q01DX Z (ip), vehicle: methylcellulose (MC) 102 % of control

O=P(CCc1ccccc1)(OCCCl)OCCCl
inactive: dose: 100.0 mg/kg/injection, schedule: Q04DX002 (ip), vehicle: saline with Tween-80 99 % of control | [1] 96 % of control | dose: 400.0 mg/kg/injection, schedule: Q04DX002 (ip), vehicle: saline with Tween-80 92 % of control

CC1=CC(c2ccccc2O)C(=C(C)C)CC1 (configuration not stated)
inactive: dose: 50.0 mg/kg/injection, schedule: Q01DX009 (ip), vehicle: Klucel (hydroxypropylcellulose) (HPC) 96 % of control | [2] 93 % of control | [3] 89 % of control

Nc1nc(N)c(-c2ccc(Cl)cc2)c(CCc2cccc(NC(=O)c3cccc(S(=O)(=O)F)c3)c2)n1
inactive: dose: 100.0 mg/kg/injection, schedule: Q01DX001 (ip), vehicle: saline with Tween-80 93 % of control | dose: 200.0 mg/kg/injection, schedule: Q01DX001 (ip), vehicle: saline with Tween-80 95 % of control | dose: 400.0 mg/kg/injection, schedule: Q01DX001 (ip), vehicle: saline with Tween-80 97 % of control

CNN=C(C)C
inactive: dose: 12.5 mg/kg/injection, schedule: Q01DX001 (ip), vehicle: saline 94 % of control | [4] 105 % of control | [5] 96 % of control | dose: 25.0 mg/kg/injection, schedule: Q01DX001 (ip), vehicle: saline 94 % of control | [6] 100 % of control | [7] 98 % of control | [8] 97 % of control | dose: 50.0 mg/kg/injection, schedule: Q04DX003 (ip), vehicle: saline 98 % of control

CCOC(=O)c1ccc(NC(=O)Nc2ccccc2C(=O)OC)cc1
inactive: [2] 110 % of control | [3] 100 % of control | [9] 94 % of control

Cc1ccc(NC(=S)N(C)C)cc1
inactive: [2] 104 % of control | [3] 108 % of control | [9] 108 % of control

O=[N+]([O-])c1nc2ccccc2[nH]1
inactive: dose: 100.0 mg/kg/injection, schedule: Q01DX001 (ip), vehicle: other 98 % of control

CC(Br)C(=O)NCC(=O)NCC(=O)O (configuration not stated)
inactive: dose: 100.0 mg/kg/injection, schedule: Q01DX009 (ip), vehicle: saline 100 % of control | [10] 101 % of control | dose: 200.0 mg/kg/injection, schedule: Q01DX009 (ip), vehicle: saline 89 % of control | [11] 101 % of control | dose: 400.0 mg/kg/injection, schedule: Q01DX009 (ip), vehicle: saline 90 % of control | [12] 97 % of control

C=C1C(=O)N2CCCC2C(=O)N1C (configuration not stated)
inactive: dose: 75.0 mg/kg/injection, schedule: Q04DX002 (ip), vehicle: saline 94 % of control | dose: 150.0 mg/kg/injection, schedule: Q04DX002 (ip), vehicle: saline 97 % of control | dose: 300.0 mg/kg/injection, schedule: Q04DX002 (ip), vehicle: saline 87 % of control

O=C1C(N2CCOCC2)=C(N2CC2)C(=O)C(N2CCOCC2)=C1N1CC1
inactive: dose: 0.19 mg/kg/injection, schedule: Q04DX003 (ip), vehicle: saline 92 % of control and 102 % of control | dose: 0.37 mg/kg/injection, schedule: Q04DX003 (ip), vehicle: saline 94 % of control and 107 % of control | dose: 0.75 mg/kg/injection, schedule: Q01DX009 (ip), vehicle: saline 105 % of control and 118 % of control | dose: 0.75 mg/kg/injection, schedule: Q04DX003 (ip), vehicle: saline 107 % of control and 113 % of control | dose: 1.5 mg/kg/injection, schedule: Q01DX009 (ip), vehicle: saline 120 % of control | dose: 1.5 mg/kg/injection, schedule: Q04DX003 (ip), vehicle: saline 105 % of control | dose: 3.0 mg/kg/injection, schedule: Q04DX003 (ip), vehicle: saline 122 % of control | dose: 3.12 mg/kg/injection, schedule: Q01DX001 (ip), vehicle: saline 86 % of control | dose: 12.0 mg/kg/injection, schedule: Q04DX003 (ip), vehicle: saline 115 % of control

NC(=S)Nc1ccccn1
inactive: dose: 25.0 mg/kg/injection, schedule: Q01DX009 (ip), vehicle: saline with Tween-80 103 % of control | dose: 50.0 mg/kg/injection, schedule: Q01DX009 (ip), vehicle: saline with Tween-80 90 % of control | [13] 101 % of control | [14] 98 % of control

CC(=O)OCCOc1ccc([N+](=O)[O-])cc1
inactive: [14] 102 % of control | [15] 102 % of control | [16] 103 % of control

N#C/C(=C/c1cc(Cl)ccc1O)C(N)=O
inactive: [2] 102 % of control | [3] 95 % of control | [9] 100 % of control

COCOc1ccc(-c2ccc(O)cc2)cc1
inactive: [14] 91 % of control | [15] 91 % of control | [16] 94 % of control

c1ccc(C[n+]2cccc3ccccc32)cc1
inactive: dose: 6.25 mg/kg/injection, schedule: Q01DX009 (ip), vehicle: saline 100 % of control | dose: 6.25 mg/kg/injection, schedule: Q04DX003 (ip), vehicle: saline 97 % of control | [4] 101 % of control | dose: 12.5 mg/kg/injection, schedule: Q04DX002 (ip), vehicle: saline 98 % of control | [5] 106 % of control | [6] 100 % of control | dose: 25.0 mg/kg/injection, schedule: Q04DX002 (ip), vehicle: saline 102 % of control | [7] 101 % of control | dose: 50.0 mg/kg/injection, schedule: Q04DX002 (ip), vehicle: saline 105 % of control

Cc1cc(C)c(N(CC(=O)O)S(=O)(=O)c2ccccc2)c(Sc2ccccc2)c1
inactive: dose: 100.0 mg/kg/injection, schedule: Q01DX001 (ip), vehicle: Klucel (hydroxypropylcellulose) (HPC) 113 % of control | dose: 200.0 mg/kg/injection, schedule: Q01DX001 (ip), vehicle: Klucel (hydroxypropylcellulose) (HPC) 98 % of control | dose: 400.0 mg/kg/injection, schedule: Q01DX001 (ip), vehicle: Klucel (hydroxypropylcellulose) (HPC) 100 % of control

OCCOCC12c3ccccc3C3C(c4ccccc41)C32 (configuration not stated)
inactive: dose: 50.0 mg/kg/injection, schedule: Q04DX002 (ip), vehicle: saline with Tween-80 90 % of control | [1] 96 % of control

O=C(Cc1ccccc1)ONC(CCCCNC(=O)OCc1ccccc1)C(=O)Nc1ccc(Cc2ccc(NC(=O)C(CCCCNC(=O)OCc3ccccc3)NC(=O)OCc3ccccc3)cc2)cc1 (configuration not stated)
inactive: [8] 95 % of control | dose: 100.0 mg/kg/injection, schedule: Q01DX001 (ip), vehicle: saline 95 % of control | dose: 200.0 mg/kg/injection, schedule: Q01DX001 (ip), vehicle: saline 95 % of control | dose: 400.0 mg/kg/injection, schedule: Q01DX001 (ip), vehicle: saline 95 % of control

CCCCCC1SC1CC1SC1CCCCCCCC(=O)NCCCOCCOCCOCC (configuration not stated)
inactive: [13] 121 % of control | dose: 200.0 mg/kg/injection, schedule: Q01DX009 (ip), vehicle: saline with Tween-80 104 % of control

CCNC(=O)CS(=O)(=O)c1ccc(N)cc1
inactive: [10] 100 % of control | [11] 108 % of control | [12] 105 % of control
